This assay concerns the target Prolyl endopeptidase-like (Mus musculus) (UniProt Q8C167). Nature of the assay: mouse PREPL activity blockade, proteome background – biochemical, gel-based competitive ABPP, fluorescence, assay provider (AID 624480). As to conditions: mouse brain proteome spiked PREPL, FP-Rh gel ABPP; at 50 µM; hits give high values.

The inhibition is the percentage by which the read-out fell short of the control.

The structures appear in SMILES notation. Activity calls are given as the source filed them.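 How the source made its calls: active means inhibition of probe labeling in the gel above a set limit; inactive means inhibition at or below that limit.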

Chain of Prolyl endopeptidase-like (Mus musculus) (Q8C167 whole entry, looked up): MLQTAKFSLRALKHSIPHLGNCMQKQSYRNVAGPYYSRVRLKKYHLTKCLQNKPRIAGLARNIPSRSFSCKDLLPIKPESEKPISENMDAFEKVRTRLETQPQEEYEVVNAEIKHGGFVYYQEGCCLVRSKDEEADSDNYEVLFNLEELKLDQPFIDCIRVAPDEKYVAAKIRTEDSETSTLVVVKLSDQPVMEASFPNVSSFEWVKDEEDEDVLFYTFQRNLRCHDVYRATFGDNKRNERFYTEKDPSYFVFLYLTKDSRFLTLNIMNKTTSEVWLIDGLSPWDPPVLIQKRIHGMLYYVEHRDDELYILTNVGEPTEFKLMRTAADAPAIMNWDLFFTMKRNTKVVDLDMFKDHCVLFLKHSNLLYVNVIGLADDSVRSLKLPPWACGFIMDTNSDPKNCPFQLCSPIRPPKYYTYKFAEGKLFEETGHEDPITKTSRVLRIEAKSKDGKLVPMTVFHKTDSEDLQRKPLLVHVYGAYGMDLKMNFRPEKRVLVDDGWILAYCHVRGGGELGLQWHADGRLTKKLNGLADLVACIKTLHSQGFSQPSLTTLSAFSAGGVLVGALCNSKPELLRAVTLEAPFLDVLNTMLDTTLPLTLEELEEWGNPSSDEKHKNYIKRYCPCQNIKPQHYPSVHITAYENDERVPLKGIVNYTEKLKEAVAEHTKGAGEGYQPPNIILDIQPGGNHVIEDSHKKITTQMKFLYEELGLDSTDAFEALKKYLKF

For the molecule `COc1cc2nc(Nc3ccc(C)c(C)c3)nc(N)c2cc1OC`, the inhibition is 17% (inactive). The result for `CCOc1ccc(CCNC(=O)c2ccc3c(=O)[nH]c4c(C(=O)NC(C)C)sc(=S)n4c3c2)cc1` reads 25%; that for `N#Cc1c2c(c(-c3ccccc3)[nH]c1=O)CCCC2`, 41%; that for `CC(C)Cc1[nH]c(=O)c(C#N)c2c1CCC2`, 70%.

Consider `O=C(Nc1ccc2c(c1)OCCO2)c1cccc2nc3ccccc3nc12`, for which the inhibition was 15% (inactive).

These data come from PubChem BioAssay AID624480 (The Scripps Research Institute Molecular Screening Center, 2012).
